Measured values reported in patent US11319299B2, “Substituted carboxamides as inhibitors of WDR5 protein-protein binding” (PROPELLON THERAPEUTICS INC., priority 2016, dated 2022).

What follows are compounds tested against WDR5 (Homo sapiens (Human), UniProt P61964) (assay: Surface Plasmon Resonance (SPR) assay, KD and residence time). Conditions: surface plasmon resonance (SPR); read-out: WDR5 binding affinity (KD).
Format: binding
Work on `C[C@@H]1CN(c2cc(F)c(-c3csc(C(=O)N(C)CC4CC4)n3)cc2NC(=O)c2cn(C)c(=O)cc2C(F)(F)F)C[C@H](C)N1C` [Example 524, N-(cyclopropylmethyl)-4-[2-fluoro-5-[[-methyl-6-oxo-4-(trifluoromethyl)pyridine-3-carbonyl]amino]-4-[(3R,5S)-3,4,5-trimethylpiperazin-1-yl]phenyl]-N-methyl-1,3-thiazole-2-carboxamide] yielded a Kd of 5.03 nM.
With `C[C@@H]1CN(c2cc(F)c(-c3csc(C(=O)NC4CCCCC4)n3)cc2NC(=O)c2cn(C)c(=O)cc2C(F)(F)F)C[C@H](C)N1C` [Example 525, N-cyclohexyl-4-[2-fluoro-5-[[1-methyl-6-oxo-4-(trifluoromethyl)pyridine-3-carbonyl]amino]-4-[(3R,5S)-3,4,5-trimethylpiperazin-1-yl]phenyl]-1,3-thiazole-2-carboxamide] the Kd was 5.42 nM.
Work on `C[C@@H]1CN(c2cc(F)c(-c3csc(C(=O)N(C)C4CCCCC4)n3)cc2NC(=O)c2cn(C)c(=O)cc2C(F)(F)F)C[C@H](C)N1C` [Example 526, N-cyclohexyl-4-[2-fluoro-5-[[1-methyl-6-oxo-4-(trifluoromethyl)pyridine-3-carbonyl]amino]-4-[(3R,5S)-3,4,5-trimethylpiperazin-1-yl]phenyl]-N-methyl-1,3-thiazole-2-carboxamide] yielded a Kd of 4.89 nM.
`C[C@@H]1CN(c2cc(F)c(-c3csc(C(=O)N4CCOCC4)n3)cc2NC(=O)c2cn(C)c(=O)cc2C(F)(F)F)C[C@H](C)N1C` [Example 527, N-[4-fluoro-5-[2-(morpholine-4-carbonyl)-1,3-thiazol-4-yl]-2-[(3R,5S)-3,4,5-trimethylpiperazin-1-yl]phenyl]-1-methyl-6-oxo-4-(trifluoromethyl)pyridine-3-carboxamide] gave a Kd of 5.66 nM.
Compound `C[C@@H]1CN(c2cc(F)c(-c3csc(C(=O)N4CCN(C)CC4)n3)cc2NC(=O)c2cn(C)c(=O)cc2C(F)(F)F)C[C@H](C)N1C` [Example 528, N-[4-fluoro-5-[2-(4-methylpiperazine-1-carbonyl)-1,3-thiazol-4-yl]-2-[(3R,5S)-3,4,5-trimethylpiperazin-1-yl]phenyl]-1-methyl-6-oxo-4-(trifluoromethyl)pyridine-3-carboxamide] has a Kd of 4.05 nM.
For `C[C@@H]1CN(c2cc(F)c(-c3csc(C(=O)NCC4CC4)n3)cc2NC(=O)c2c[nH]c(=O)cc2C(F)(F)F)C[C@H](C)N1C` [Example 531, N-(cyclopropylmethyl)-4-[2-fluoro-5-[[6-oxo-4-(trifluoromethyl)-1H-pyridine-3-carbonyl]amino]-4-[(3R,5S)-3,4,5-trimethylpiperazin-1-yl]phenyl]-1,3-thiazole-2-carboxamide], the Kd was 1.06 nM.
`C[C@@H]1CN(c2cc(F)c(-c3csc(C(=O)NC4CCCCC4)n3)cc2NC(=O)c2c[nH]c(=O)cc2C(F)(F)F)C[C@H](C)N1C` [Example 533, N-cyclohexyl-4-[2-fluoro-5-[[6-oxo-4-(trifluoromethyl)-1H-pyridine-3-carbonyl]amino]-4-[(3R,5S)-3,4,5-trimethylpiperazin-1-yl]phenyl]-1,3-thiazole-2-carboxamide] showed a Kd of 1.98 nM.
Compound `C[C@@H]1CN(c2cc(F)c(-c3csc(C(=O)N(C)C4CCCCC4)n3)cc2NC(=O)c2c[nH]c(=O)cc2C(F)(F)F)C[C@H](C)N1C` [Example 534, N-cyclohexyl-4-[2-fluoro-5-[[6-oxo-4-(trifluoromethyl)-1H-pyridine-3-carbonyl]amino]-4-[(3R,5S)-3,4,5-trimethylpiperazin-1-yl]phenyl]-N-methyl-1,3-thiazole-2-carboxamide] has a Kd of 1.31 nM.
`C[C@@H]1CN(c2cc(F)c(-c3csc(C(=O)N4CCOCC4)n3)cc2NC(=O)c2c[nH]c(=O)cc2C(F)(F)F)C[C@H](C)N1C` [Example 535, N-[4-fluoro-5-[2-(morpholine-4-carbonyl)-1,3-thiazol-4-yl]-2-[(3R,5S)-3,4,5-trimethylpiperazin-1-yl]phenyl]-6-oxo-4-(trifluoromethyl)-1H-pyridine-3-carboxamide] showed a Kd of 2.8 nM.
